The values that follow come from ChEMBL document CHEMBL1201862, “PubChem BioAssay data set” (2004).

Calls of active or inactive are those of the source. Bounds are passed on as bounds.

Test [1] can be described thus: NIH:OVCAR-3 ovarian cancer cell cytotoxicity, dose response, PAX8 inhibitor project, plate reader, dry powder samples (AID 743044). Type of test: functional, cell-based.
Test [2] in a line: IGROV1 ovarian cancer cell cytotoxicity, dose response, PAX8 inhibitor project, plate reader, dry powder samples (AID 743043). Format: functional, cell-based. As to conditions: IGROV-1.
The nature of test [3]: non-specific cell cytotoxicity, dose response, cytotoxicity control for PAX8 inhibitor project, plate reader, dry powder samples (AID 743021). Format: functional, cell-based.
Test [4] concerns the target Paired box protein Pax-8 (Homo sapiens, UniProt Q06710). As to the kind of experiment: inhibitors of PAX8-driven TPO luciferase reporter, dose response, RMG-I cells, cherry-pick (AID 687027).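 Also: luciferase reporter driven by Pax8 target thyroperoxidase promoter measured by SteadyGlo luminescence.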 Format: functional, cell-based.
For test [5], the target named is Muscarinic acetylcholine receptor M5 (Homo sapiens, UniProt P08912). The test can be described thus: M5 receptor positive allosteric modulators, dose response, cell-based, concentration-response curve (AID 651878). Type of test: functional.
Test [6] can be described thus: P. falciparum 3D7-ScDHODH growth inhibitors, dose response, SYBR Green, dry powder samples (AID 1159570).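 Also: parasite growth measured after 72 hours of compound exposure.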 Type of test: functional, cell-based.
A short description of test [7]: P. falciparum Dd2 blood-stage growth inhibition, dose response, SYBR Green fluorescence, erythrocytes, dry powder, set 2 (AID 1159574). Type of test: functional, cell-based.
The nature of test [8]: P. falciparum Dd2 growth inhibitors, dose response, SYBR Green, cherry-picked samples (AID 1159567). Type of test: functional, cell-based.
The nature of test [9]: HepG2 cell cytotoxicity, dose response, cytotoxicity control, cherry-picked samples (AID 1159577). Type of test: functional, cell-based.
Test [10] is described as follows: P. falciparum Dd2 growth inhibitors, dose response, SYBR Green, dry powder samples (AID 1159566).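 Also: potency for growth inhibition with lower SYBR green DNA signal.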 Type of test: functional, cell-based.
A short description of test [11]: P. falciparum ATP4 D1247Y mutant growth inhibitors, dose response, NITD609-resistant line, SYBR Green, dry powder (AID 1159571).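 Also: parasites synchronized at ring stage by sorbitol before testing.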 Type of test: functional, cell-based.
A short description of test [12]: HepG2 cell cytotoxicity, dose response, cytotoxicity control, plate reader, dry powder samples (AID 1159569).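 Also: inhibitor potency with signal falling toward the positive control level.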 Type of test: functional, cell-based.
Test [13] can be described thus: P. falciparum Dd2 growth inhibitors, dose response, SYBR Green, dry powder samples, set 4 (AID 1159572). Format: functional, cell-based.
Test [14] in a line: P. falciparum Dd2 growth inhibitors, dose response, SYBR Green, dry powder samples, set 9 (AID 1159568). Type of test: functional, cell-based.
Test [15] deals with Heat shock protein HSP 90-alpha (Homo sapiens, UniProt P07900). Type of test: functional, organism-based.
Test [16] can be described thus: HeLa 2N DNA content increase, dose response, cell-based, IC50 (AID 1117349). Type of test: functional.
For test [17], the target named is T1, COUP transcription factor 2 (Homo sapiens, UniProt P24468).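 Also: HEK293 cells transiently cotransfected with COUP-TFII expression vector and reporter; luciferase reporter luminescence driven by COUP-TFII from the pX2-168 reporter plasmid.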
T1 sequence (P24468 whole entry): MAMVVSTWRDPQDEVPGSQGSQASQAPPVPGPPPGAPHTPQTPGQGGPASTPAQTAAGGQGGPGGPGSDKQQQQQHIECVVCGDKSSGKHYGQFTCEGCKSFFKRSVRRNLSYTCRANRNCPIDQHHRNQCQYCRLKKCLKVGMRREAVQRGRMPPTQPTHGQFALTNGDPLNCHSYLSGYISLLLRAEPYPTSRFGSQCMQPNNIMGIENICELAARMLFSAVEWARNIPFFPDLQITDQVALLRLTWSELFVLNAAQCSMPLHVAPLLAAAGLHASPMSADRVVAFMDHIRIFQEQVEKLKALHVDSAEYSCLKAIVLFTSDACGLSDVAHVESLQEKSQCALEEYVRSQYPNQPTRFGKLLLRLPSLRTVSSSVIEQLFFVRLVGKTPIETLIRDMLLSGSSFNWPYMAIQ
The test can be described thus: Luminescence-based cell-based high throughput dose response assay to identify inhibitors of COUP-TFII (NR2F2). Type of test: functional.

Test [18] in a line: inhibitors of PGC1a acetylation in cells, dose response, cell-based, cherry-picked samples (AID 720514).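 Also: potency may reflect raised or lowered acetylation signal.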 Type of test: functional.
The nature of test [19]: control 3'UTR Renilla luciferase suppression, dose response, counter-screen for Shn3 inhibitor project, cell-based, Clone20-Shn3RL, cherry-picked (AID 624133). Type of test: functional. For orientation: Counterscreens check selectivity or assay interference.
Test [20] can be described thus: Shn3 3'UTR reporter inhibitors, dose response, cell-based, Clone20 osteoblasts, firefly luciferase, cherry-picked (AID 624132).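 Also: firefly luciferase luminescence from reporter carrying the Shn3 3'UTR in osteoblasts.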 Format: functional.
Test [21] is described as follows: HeLa 4N DNA content increase, dose response, cell-based, IC50 (AID 1117351). Format: functional.

Sequence of Paired box protein Pax-8 (Q06710 whole entry): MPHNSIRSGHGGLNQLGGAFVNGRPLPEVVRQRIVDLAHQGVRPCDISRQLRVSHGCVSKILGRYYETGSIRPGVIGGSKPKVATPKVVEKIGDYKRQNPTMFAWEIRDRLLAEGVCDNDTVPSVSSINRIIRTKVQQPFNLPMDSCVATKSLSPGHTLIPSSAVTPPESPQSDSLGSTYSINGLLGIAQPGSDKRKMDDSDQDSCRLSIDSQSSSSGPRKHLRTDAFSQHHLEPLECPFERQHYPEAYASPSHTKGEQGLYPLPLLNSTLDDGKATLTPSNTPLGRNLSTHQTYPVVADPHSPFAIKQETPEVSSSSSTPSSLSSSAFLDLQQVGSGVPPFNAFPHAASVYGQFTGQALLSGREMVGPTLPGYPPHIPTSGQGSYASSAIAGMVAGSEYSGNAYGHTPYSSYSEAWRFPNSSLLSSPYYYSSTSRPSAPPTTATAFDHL
Sequence of Muscarinic acetylcholine receptor M5 (P08912 whole entry): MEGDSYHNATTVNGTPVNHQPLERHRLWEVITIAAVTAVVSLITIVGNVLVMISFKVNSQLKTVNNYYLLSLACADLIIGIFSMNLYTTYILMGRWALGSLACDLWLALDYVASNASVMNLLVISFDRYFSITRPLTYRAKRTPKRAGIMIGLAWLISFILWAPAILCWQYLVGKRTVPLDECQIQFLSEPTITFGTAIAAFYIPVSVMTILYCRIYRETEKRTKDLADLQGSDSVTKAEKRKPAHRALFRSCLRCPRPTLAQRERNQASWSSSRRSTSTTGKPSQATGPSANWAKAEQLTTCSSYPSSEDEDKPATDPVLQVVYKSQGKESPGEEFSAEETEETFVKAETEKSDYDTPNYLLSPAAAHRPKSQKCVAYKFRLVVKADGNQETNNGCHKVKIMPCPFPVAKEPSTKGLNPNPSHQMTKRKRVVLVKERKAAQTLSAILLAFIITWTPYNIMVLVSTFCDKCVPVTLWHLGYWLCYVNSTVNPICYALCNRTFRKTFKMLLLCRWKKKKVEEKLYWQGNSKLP

With `C[C@@H]1CN([C@@H](C)CO)C(=O)Cc2cc(NS(=O)(=O)c3ccc(Cl)cc3)ccc2O[C@@H]1CN(C)CC1CCCCC1`, the AC50 (commonly the concentration at which the activity in the assay is half-maximal) in [1] was 21200 nM (active); in test [2] it was 46200 nM (active); in test [3], 41900 nM (active); in [4], 11700 nM (active).

Regarding `O=C1C(=O)N(CCCOc2ccccc2)c2ccc(OC(F)(F)F)cc21`, in [5], the EC50 (as a rule, the midpoint of the concentration-response curve) was 1970 nM (active).

Turning to `COc1ccc2c3c([nH]c2c1)[C@H](CO)N(C(C)=O)CC31CCN(C(=O)Nc2ccccc2F)CC1`, the AC50 was 26.3 nM (active) in test [6]; 82.8 nM (active) in [7]; < 300 nM (active) in test [8]; 33400 nM (active) in [9]; 27.9 nM (active) in [10]; 16.6 nM (active) in test [11]. The AC50 in test [12] was 46900 nM (active); in test [13], 101 nM (active).

In the case of `C[C@@H]1CCCCO[C@H](CN(C)S(=O)(=O)c2ccccc2)[C@@H](C)CN([C@H](C)CO)C(=O)c2cc(NC(=O)Nc3ccc4c(c3)OCO4)ccc2O1`, the AC50 in test [14] is 8490 nM (active).

Consider `C[C@@H]1C[C@@H]([C@H](O)CC2CC(=O)NC(=O)C2)C(=O)[C@@H](C)C1` [CYCLOHEXIMIDE], for which the AC50 in test [15] was < 195 nM (active); in [18], 2230 nM (active); in test [19], 695 nM (active); in test [20], 345 nM (active). Moreover, the IC50 (usually the concentration needed to halve the response being measured) in test [16] is > 10000 nM (inactive); in [17], 1320 nM (active); in [21], > 10000 nM (inactive).
